target: T1, Rat IKK-2 (Rattus norvegicus, UniProt Q9QY78); test: Rat IKK-2 enzyme assay; assay type: biochemical; conditions: read-out: IC50 (μM) rIKK-2
T1 sequence (Q9QY78 1-757): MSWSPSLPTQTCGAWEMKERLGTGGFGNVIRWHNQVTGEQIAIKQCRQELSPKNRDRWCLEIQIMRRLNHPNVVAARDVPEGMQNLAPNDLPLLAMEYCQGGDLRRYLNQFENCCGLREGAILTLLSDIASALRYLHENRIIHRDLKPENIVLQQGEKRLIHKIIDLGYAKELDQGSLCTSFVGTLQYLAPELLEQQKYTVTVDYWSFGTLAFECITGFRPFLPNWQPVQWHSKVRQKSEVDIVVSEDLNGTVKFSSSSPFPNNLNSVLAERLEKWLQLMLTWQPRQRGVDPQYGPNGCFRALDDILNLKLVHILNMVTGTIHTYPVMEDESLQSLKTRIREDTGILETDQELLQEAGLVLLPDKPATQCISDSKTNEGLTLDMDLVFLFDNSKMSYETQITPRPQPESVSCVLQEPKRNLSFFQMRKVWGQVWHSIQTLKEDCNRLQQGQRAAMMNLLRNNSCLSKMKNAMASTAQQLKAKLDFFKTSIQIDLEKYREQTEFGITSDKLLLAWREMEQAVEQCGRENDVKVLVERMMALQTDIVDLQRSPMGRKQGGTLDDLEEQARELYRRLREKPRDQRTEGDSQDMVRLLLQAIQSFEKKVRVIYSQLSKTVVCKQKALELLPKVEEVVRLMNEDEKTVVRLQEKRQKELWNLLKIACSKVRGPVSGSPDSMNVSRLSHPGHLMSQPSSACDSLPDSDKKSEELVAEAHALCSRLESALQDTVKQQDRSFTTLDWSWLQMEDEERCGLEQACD
Method: Kinase activity was measured using a biotinylated […] peptide (Gly-Leu-Lys-Lys-Glu-Arg-Leu-Leu-Asp-Asp-Arg-His-Asp-Ser32-Gly-Leu-Asp-Ser36-Met-Lys-Asp-Glu-Glu) (American Peptide Co.). 20 μL of the standard reaction mixture contained 5 μM biotinylated IκBα peptide, 0.1 μCi/reaction [γ-^33P] ATP (Amersham) (about 1×10^5 cpm), 1 μM ATP (Sigma), 1 mM DTT (Sigma), 2 mM MgCl2 (Sigma), 2 mM MnCl2 (Sigma), 10 mM NaF (Sigma), 25 mM Hepes (Sigma) buffer, pH. 7.6 and 20 μL enzyme solution (50 nM/rxn or 200 ng/rxn) and 10 μL inhibitor in a final volume of 50 μL. After incubation at 25° C. for 60 min, 150 μL resin was added to each well to stop the reaction. Resin was mixed and allowed to settle for 1 h and 50 μL of supernatant was removed to a Micolite 2 flat bottom plate (Dynex). 150 μL of scintillation fluid (Microscint 40) (Packard) was added to each well. Incorporation of [γ-^33P] ATP was measured using a Top-Count NXT (Packard).

| SMILES | IC50 [µM] |
| --- | --- |
| NC(=O)Nc1cn(-c2ccc(I)cc2)nc1C(N)=O [Example 215, 4-[(aminocarbonyl)amino]-1-(4-iodophenyl)-1H-pyrazole-3-carboxamide] | 0.091 |
| N#CCOc1ccc(F)cc1-c1cccc(-n2cc(NC(N)=O)c(C(N)=O)n2)c1 [Example 94, 4-[(aminocarbonyl)amino]-1-[2′-(cyanomethoxy)-5′-fluoro-1,1′-biphenyl-3-yl]-1H-pyrazole-3-carboxamide] | 0.22 |
| N#CCOc1cc(F)ccc1-c1ccc(-n2cc(NC(N)=O)c(C(N)=O)n2)cc1 [Example 173, 4-[(aminocarbonyl)amino]-1-[2′-(cyanomethoxy)-4′-fluoro-1,1′-biphenyl-4-yl]-1H-pyrazole-3-carboxamide] | 0.105 |
| N#CCOc1ccc(F)cc1-c1ccc(-n2cc(NC(N)=O)c(C(N)=O)n2)cc1 [Example 172, 4-[(aminocarbonyl)amino]-1-[2′-(cyanomethoxy)-5′-fluoro-1,1′-biphenyl-4-yl]-1H-pyrazole-3-carboxamide] | 0.033 |
| N#CCCc1cccc(-c2ccc(-n3cc(NC(N)=O)c(C(N)=O)n3)cc2)c1 [Example 186, 4-[(aminocarbonyl)amino]-1-[3′-(2-cyanoethyl)-1,1′-biphenyl-4-yl]-1H-pyrazole-3-carboxamide] | 0.475 |
| NC(=O)COc1cccc(-c2ccc(-n3cc(NC(N)=O)c(C(N)=O)n3)cc2)c1 [Example 175, 4-[(aminocarbonyl)amino]-1-[3′-(2-amino-2-oxoethoxy)-1,1′-biphenyl-4-yl]-1H-pyrazole-3-carboxamide] | 0.181 |
| NC(=O)Nc1cn(-c2ccc(-c3ccc(C(=O)OCc4ccc(F)cc4)c(F)c3)cc2)nc1C(N)=O [Example 164, 4-fluorobenzyl 4′-{3-(aminocarbonyl)-4-[(aminocarbonyl)amino]-1H-pyrazol-1-yl}-3-fluoro-1,1′-biphenyl-4-carboxylate] | 7.27 |
| CNC(=O)Nc1cn(-c2cccc(Br)c2)nc1C(N)=O [Example 15, 1-(3-bromophenyl)-4-{[(methylamino)carbonyl]amino}-1H-pyrazole-3-carboxamide] | 4.45 |
| CN(C)CCN(C)C(=O)c1ccc(-c2ccc(-n3cc(NC(N)=O)c(C(N)=O)n3)cc2)cc1F [Example 160, 4-[(aminocarbonyl)amino]-1-(4′-{[[2-(dimethylamino)ethyl](methyl)amino]carbonyl}-3′-fluoro-1,1′-biphenyl-4-yl)-1H-pyrazole-3-carboxamide] | 7.19 |
| NC(=O)Nc1cn(-c2cccc(-c3cc(F)ccc3O)c2)nc1C(N)=O [Example 93, 4-[(aminocarbonyl)amino]-1-(5′-fluoro-2′-hydroxy-1,1′-biphenyl-3-yl)-1H-pyrazole-3-carboxamide] | 1.82 |
| NC(=O)Nc1cn(-c2ccc(S(=O)(=O)c3ccc(F)cc3)cc2)nc1C(N)=O [Example 204, 1-(1-(4-(4-fluorophenylsulfonyl)phenyl)-3-carbamoyl-1H-pyrazol-4-yl)urea] | 0.023 |
| NC(=O)Nc1cn(-c2ccc(Br)c(C(F)(F)F)c2)nc1C(N)=O [Example 1, 4-[(aminocarbonyl)amino]-1-[4-bromo-3-(trifluoromethyl)phenyl]-1H-pyrazole-3-carboxamide] | 0.108 |
| CCOc1cc(-n2cc(NC(N)=O)c(C(N)=O)n2)ccc1Br [Example 3, 4-[(aminocarbonyl)amino]-1-(4-bromo-3-ethoxyphenyl)-1H-pyrazole-3-carboxamide] | 0.787 |
| NC(=O)Nc1cn(-c2ccc(-c3cc(F)ccc3O)cc2)nc1C(N)=O [Example 99, 4-[(aminocarbonyl)amino]-1-(5′-fluoro-2′-hydroxy-1,1′-biphenyl-4-yl)-1H-pyrazole-3-carboxamide] | 0.555 |

More lines, in order of falling IC50, values ahead:

| IC50 [µM] | SMILES |
| --- | --- |
| 17.4 | NC(=O)Nc1cn(-c2ccc(-c3ccc(C(=O)OCc4cccc(F)c4)c(F)c3)cc2)nc1C(N)=O [Example 163, 3-fluorobenzyl 4′-{3-(aminocarbonyl)-4-[(aminocarbonyl)amino]-1H-pyrazol-1-yl}-3-fluoro-1,1′-biphenyl-4-carboxylate] |
| 4 | NC(=O)Nc1cn(-c2ccc(-c3cc4ccccc4[nH]3)cc2)nc1C(N)=O [Example 141, 4-[(aminocarbonyl)amino]-1-[4-(1H-indol-2-yl)phenyl]-1H-pyrazole-3-carboxamide] |
| 2.83 | CNC(=O)Nc1cn(-c2ccc(Br)cc2)nc1C(N)=O [Example 16, 1-(4-bromophenyl)-4-{[(methylamino)carbonyl]amino}-1H-pyrazole-3-carboxamide] |
| 2.66 | NC(=O)Nc1cn(-c2cccc(-c3ccc(F)cc3O)c2)nc1C(N)=O [Example 92, 4-[(aminocarbonyl)amino]-1-(4′-fluoro-2′-hydroxy-1,1′-biphenyl-3-yl)-1H-pyrazole-3-carboxamide] |
| 1.89 | NC(=O)Nc1cn(-c2ccc(-c3ccccc3)cc2)nc1C(N)=O [Example 101, 4-[(aminocarbonyl)amino]-1-(1,1′-biphenyl-4-yl)-1H-pyrazole-3-carboxamide] |
| 1.08 | COc1ccc(-n2cc(NC(N)=O)c(C(N)=O)n2)cc1Cl [Example 209, 4-[(Aminocarbonyl)amino]-1-(3-chloro-4-methoxyphenyl)-1H-pyrazole-3-carboxamide] |
| 0.352 | NC(=O)Nc1cn(-c2ccc(Br)cc2)nc1C(N)=O [Example 19, 1-(1-(4-bromophenyl)-3-carbamoyl-1H-pyrazol-4-yl)urea] |
| 0.297 | NC(=O)Nc1cn(-c2ccc(S(=O)(=O)C3CCCCC3)cc2)nc1C(N)=O [Example 192, 1-(3-carbamoyl-1-(4-(cyclohexylsulfonyl)phenyl)-1H-pyrazol-4-yl)urea] |
| 0.258 | NC(=O)Nc1cn(-c2ccc(Sc3ccccn3)cc2)nc1C(N)=O [Example 205, 1-(3-carbamoyl-1-(4-(pyridin-2-ylthio)phenyl)-1H-pyrazol-4-yl)urea] |
| 0.249 | NC(=O)Nc1cn(-c2ccc(-c3cccc(O)c3)cc2F)nc1C(N)=O [Example 247, 4-[(aminocarbonyl)amino]-1-(3-fluoro-3′-hydroxy-1,1′-biphenyl-4-yl)-1H-pyrazole-3-carboxamide] |
| 0.18 | NC(=O)Nc1cn(-c2ccc(-c3ccc(C(=O)O)c(F)c3)cc2)nc1C(N)=O [Example 97, 4′-{3-(aminocarbonyl)-4-[(aminocarbonyl)amino]-1H-pyrazol-1-yl}-3-fluoro-1,1′-biphenyl-4-carboxylic acid] |
| 0.173 | NC(=O)Nc1cn(-c2ccc(S(=O)(=O)c3ccccc3F)cc2)nc1C(N)=O [Example 194, 1-(1-(4-(2-fluorophenylsulfonyl)phenyl)-3-carbamoyl-1H-pyrazol-4-yl)urea] |
| 0.171 | N#Cc1ccc(-c2ccc(-n3cc(NC(N)=O)c(C(N)=O)n3)cc2)cc1 [Example 100, 4-[(aminocarbonyl)amino]-1-(4′-cyano-1,1′-biphenyl-4-yl)-1H-pyrazole-3-carboxamide] |
| 0.121 | NC(=O)Nc1cn(-c2ccc(-c3cccc(O)c3)c(Cl)c2)nc1C(N)=O [Example 7, 4-[(aminocarbonyl)amino]-1-(2-chloro-3′-hydroxy-1,1′-biphenyl-4-yl)-1H-pyrazole-3-carboxamide] |
| 0.089 | Cc1cc(-n2cc(NC(N)=O)c(C(N)=O)n2)ccc1I [Example 8, 1-(4-iodo-3-methyl-phenyl)-4-ureido-1H-pyrazole-3-carboxylic acid amide] |

— patent US20050197338A1, “Substituted pyrazole urea compounds for the treatment of inflammation” (priority 2003, published 2005)
